{
  "source": "patent US11497761B2",
  "about": "“Compositions for the treatment of metastatic cancer” (priority 2019, dated 2022)",
  "key": {"[1]": {"test_system": "primary human T-cell signaling", "conditions": "in vitro, cited from earlier work"}, "[2]": {"experiment": "Stability of monolaurin stock solution", "format": "physicochemical", "conditions": "4.78 mM with 0.75% PS-80 (Stock Solution C), 4 degrees C", "method": "(§1) Materials for Project 1 Study-Pancreatic Cancer • Blood collection tubes: BD Vacutainer® 10 mL sodium heparin tube (BD catalog #367874)). • Vita-Assay™ AN6W plate. • Blood: pancreatic cancer, up to 40-mL blood collected from patients and provided by Conversant Bio. • Stock solution and dilutions • Monolaurin 4.78 mM with 0.75% PS-80 (Stock Solution C), 13.1 mg monolaurin in 0.25 mL PS-80 and 0.75 mL water and 0.1 mL of this solution was diluted with 0.9 mL of RPMI. Stocks are stable for 2 weeks at 4 degrees C. Monolaurin used is an equal mixture of 1-, 2-, and 3-isomers of monolaurin. • Monolaurin dilution: add 209.2 uL, 627.6 uL, and 1.2552 mL of monolaurin in 0.75% PS-80 (Stock solution C), and dilute to 10 mL of media to achieve final concentrations of 100 uM, 200 uM, 300 uM as indicated.\nMaterials for Project 1 Study-Prostate Cancer • Blood collection tubes: BD Vacutainer® 10 mL sodium heparin tube (BD catalog #367874)). • Vita-Assay™ AN6W plate. • Blood: prostate cancer, up to 40-mL blood was collected from patients and provided by Conversant bio. • Stock Solution and Dilutions • Monolaurin, 4.78 mM with 0.75% PS-80 (Stock Solution C), 13.1 mg monolaurin in 0.25 mL PS-80 and 0.75 mL water and 0.1 mL of this solution was diluted with 0.9 mL of RPMI. Stock solutions were stable for 2 weeks at 4 degrees C. […]"}, "[3]": {"test_system": "Ehrlich ascites tumor cells", "conditions": "in vitro, Kato et al. 1971; cited from earlier work"}, "[4]": {"test_system": "iCTCs from pancreatic cancer patients", "experiment": "iCTC drug response (CDR) testing ex vivo, Project 1 Study-Pancreatic Cancer", "format": "cell-based, human", "conditions": "for number of live iCTCs remaining after treatment: 72 hours", "method": "as §1\nWith respect to FIG. 1, a depiction of a generalized experimental scheme for testing efficacy of a composition in accordance with an exemplary embodiment of the present invention against iCTC from the blood of pancreatic cancer patients is shown. Invasive circulating tumor cells (iCTCs) were obtained from venous blood of the individual with advanced pancreatic cancer, cultured and exposed to a specific drug or battery of drugs at 1×, 2×, and 3× concentrations in vitro for 3 days. Drug responsiveness was measured by automatic flow cytometry using the reduction of live iCTCs in the treated samples from the number of live iCTCs in the untreated controls. The greater the reduction of iCTCs of a given drug at a given dose indicates greater responsiveness to that dose of the drug. Four AN6W plates were used for each sample. Control and drug at each dose in triplicate were incubated for 72 hours. The iCTCs were measured by flow cytometry and viewed by microscopy as described. The complete culture medium contains 10% fetal bovine serum.\nThe complete experimental procedure for Project 1 Study-Pancreatic Cancer, with reference to FIG. 1, is as follows:\n1. Blood collection: up to 40-mL of blood was collected in several sodium heparin tubes from each patient.\n2. Plasma collection: The patient sample tubes were pooled into a clean 50-mL conical tube and spun at 1,500 rpm for 8 mins at room temperature to separate plasma from blood cells. 3-4 mL of plasma were then collected into a clean 4.5-mL cell-frozen vial (up to 4 vials per patient), a labeled attached and the plasma stored at −80° C. freezer for use. 3. Calculated 50-mL tubes required for lysis of red blood cells: original blood volume. i.e., 36-mL,/2-mL=18. 4. Aliquotted 1/18 the remaining cell fraction into 18 new 50-mL tubes. 5. Red cell lysis: Added 48-mL of 1× red cell lysis buffer into each 50-mL tube to lyse red cells. Tubes placed on a roller mixer at 20-25° C. for 5 min. Cells spun down using low speed centrifugation (1,000 rpm). 6. iCTCs were captured using AN6W plate with or without drug treatment. 7. Drug treatment: Add 1-mL of CTC Capture Medium (standard culture medium containing 10% serum) with or without drugs (3× strength) to each 2-mL of the cell suspension in one well of the AN6W plate. 8. Cell culture: Culture cells in a 5% CO2 incubator at 37° C. for overnight, 72 hours, and 7 days. 9. CAM-enzyme elution of CAM-captured cells: Wells will be washed twice using 2-mL of 1×PBS. Add 0.8-mL of the activated CAM enzyme working solution into the well, and place at 37° C. for 15 min. Transfer cell suspension into a 15-mL conical centrifuge tube. Wash well by pipetting 2-mL of 1×PBS into the well and collect/transfer wash solution into the pool cell suspension. CAM-captured tumor cells will be collected using low speed centrifugation (1,000 rpm) of the conical tube. 10. Preparation of the cells for flow cytometry: Fix the cells by using 1×BD cell fixing buffer and keep at room temperature for 5 min. Add 3-mL of 1×PBS (containing 0.2% BSA buffer), spin down cells and remove the supernatant. 11. […]"}},
  "data": [
    {"smiles": "CCCCCCCCCCCC(=O)OCC(O)CO", "note": "(stereo not drawn) [Monolaurin, glycerol monolaurate]", "values": [
      {"measurement": "concentration interfering with activated T cell adhesion and actin organization", "setting": "[1]; formulated in 95% ethanol", "result": "10 to 20", "unit": "µg/mL"},
      {"measurement": "concentration interfering with activated T cell adhesion and actin organization (equivalent)", "setting": "[1]; formulated in 95% ethanol", "result": "36 to 73", "unit": "µM"},
      {"measurement": "concentrations inhibiting primary human T-cell signaling", "setting": "[1]", "result": "36 to 73", "unit": "µM"},
      {"measurement": "stock solution stable for", "setting": "[2]", "result": 2, "unit": "weeks"},
      {"measurement": "anticancer activity", "setting": "[3]", "result": "only weak activity"},
      {"measurement": "kill rates of iCTCs (summary)", "setting": "[4]; iCTCs from pancreatic cancer patients", "result": "high kill rates"},
      {"measurement": "number of live iCTCs remaining after treatment", "setting": "[4]; patient RP01 (Folfirinox), iCTC control 550, 100 uM monolaurin", "result": 50},
      {"measurement": "number of live iCTCs remaining after treatment", "setting": "[4]; patient RP01 (Folfirinox), iCTC control 550, 200 uM monolaurin", "result": 0},
      {"measurement": "number of live iCTCs remaining after treatment", "setting": "[4]; patient RP01 (Folfirinox), iCTC control 550, 300 uM monolaurin", "result": 0},
      {"measurement": "number of live iCTCs remaining after treatment", "setting": "[4]; patient RP03 (Folfirinox), iCTC control 23, 100 uM monolaurin", "result": 10},
      {"measurement": "number of live iCTCs remaining after treatment", "setting": "[4]; patient RP03 (Folfirinox), iCTC control 23, 200 uM monolaurin", "result": 0},
      {"measurement": "number of live iCTCs remaining after treatment", "setting": "[4]; patient RP03 (Folfirinox), iCTC control 23, 300 uM monolaurin", "result": 0},
      {"measurement": "number of live iCTCs remaining after treatment", "setting": "[4]; patient RP04 (Folfirinox), iCTC control 30, 100 uM monolaurin", "result": 0},
      {"measurement": "number of live iCTCs remaining after treatment", "setting": "[4]; patient RP04 (Folfirinox), iCTC control 30, 200 uM monolaurin", "result": 0},
      {"measurement": "number of live iCTCs remaining after treatment", "setting": "[4]; patient RP04 (Folfirinox), iCTC control 30, 300 uM monolaurin", "result": 0},
      {"measurement": "number of live iCTCs remaining after treatment", "setting": "[4]; patient RP10 (Folfirinox), iCTC control 100, 100 uM monolaurin", "result": 10},
      {"measurement": "number of live iCTCs remaining after treatment", "setting": "[4]; patient RP10 (Folfirinox), iCTC control 100, 200 uM monolaurin", "result": 0},
      {"measurement": "number of live iCTCs remaining after treatment", "setting": "[4]; patient RP10 (Folfirinox), iCTC control 100, 300 uM monolaurin", "result": 0},
      {"measurement": "number of live iCTCs remaining after treatment", "setting": "[4]; patient RP11 (Folfirinox), iCTC control 40, 100 uM monolaurin", "result": 10},
      {"measurement": "number of live iCTCs remaining after treatment", "setting": "[4]; patient RP11 (Folfirinox), iCTC control 40, 200 uM monolaurin", "result": 10},
      {"measurement": "number of live iCTCs remaining after treatment", "setting": "[4]; patient RP11 (Folfirinox), iCTC control 40, 300 uM monolaurin", "result": 10},
      {"measurement": "number of live iCTCs remaining after treatment", "setting": "[4]; patient RP12 (Folfirinox), iCTC control 30, 100 uM monolaurin", "result": 20},
      {"measurement": "number of live iCTCs remaining after treatment", "setting": "[4]; patient RP12 (Folfirinox), iCTC control 30, 200 uM monolaurin", "result": 0},
      {"measurement": "number of live iCTCs remaining after treatment", "setting": "[4]; patient RP12 (Folfirinox), iCTC control 30, 300 uM monolaurin", "result": 0},
      {"measurement": "number of live iCTCs remaining after treatment", "setting": "[4]; patient RP16 (Folfirinox), iCTC control 30, 100 uM monolaurin", "result": 0},
      {"measurement": "number of live iCTCs remaining after treatment", "setting": "[4]; patient RP16 (Folfirinox), iCTC control 30, 200 uM monolaurin", "result": 0},
      {"measurement": "number of live iCTCs remaining after treatment", "setting": "[4]; patient RP16 (Folfirinox), iCTC control 30, 300 uM monolaurin", "result": 0},
      {"measurement": "number of live iCTCs remaining after treatment", "setting": "[4]; patient RP17 (Gemzar), iCTC control 50, 100 uM monolaurin", "result": 0},
      {"measurement": "number of live iCTCs remaining after treatment", "setting": "[4]; patient RP17 (Gemzar), iCTC control 50, 200 uM monolaurin", "result": 0},
      {"measurement": "number of live iCTCs remaining after treatment", "setting": "[4]; patient RP17 (Gemzar), iCTC control 50, 300 uM monolaurin", "result": 0},
      {"measurement": "number of live iCTCs remaining after treatment", "setting": "[4]; patient RP18 (Gemzar/Abraxane), iCTC control 175, 100 uM monolaurin", "result": 0},
      {"measurement": "number of live iCTCs remaining after treatment", "setting": "[4]; patient RP18 (Gemzar/Abraxane), iCTC control 175, 200 uM monolaurin", "result": 0},
      {"measurement": "number of live iCTCs remaining after treatment", "setting": "[4]; patient RP18 (Gemzar/Abraxane), iCTC control 175, 300 uM monolaurin", "result": 0},
      {"measurement": "number of live iCTCs remaining after treatment", "setting": "[4]; patient RP22 (Keytruda), iCTC control 45, 100 uM monolaurin", "result": 0},
      {"measurement": "number of live iCTCs remaining after treatment", "setting": "[4]; patient RP22 (Keytruda), iCTC control 45, 200 uM monolaurin", "result": 0},
      {"measurement": "number of live iCTCs remaining after treatment", "setting": "[4]; patient RP22 (Keytruda), iCTC control 45, 300 uM monolaurin", "result": 0},
      {"measurement": "number of live iCTCs remaining after treatment", "setting": "[4]; patient RP′14 (Folfirinox), iCTC control 40, 100 uM monolaurin", "result": 20},
      {"measurement": "number of live iCTCs remaining after treatment", "setting": "[4]; patient RP′14 (Folfirinox), iCTC control 40, 200 uM monolaurin", "result": 15},
      {"measurement": "number of live iCTCs remaining after treatment", "setting": "[4]; patient RP′14 (Folfirinox), iCTC control 40, 300 uM monolaurin", "result": 10}
    ]}
  ]
}
